US4167580A, “Compositions and method of use to treat arthritic disease with m-fluorobenzimidoylacetonitrile” (American Cyanamid Company, priority 1978, dated 1979)

Legend:
[1] = tested on: Carrageenin Induced Edema of the Rat Paw; experiment: Carrageenin induced edema of the rat paw (acute anti-inflammatory activity); type: in vivo, Royal Hart, Wistar strain rats; conditions: 25 mg./kg. by gavage, 5 hours after drug (4 hours after carrageenin)
Protocol: In determining the acute anti-inflammatory activity of benzimidoylacetonitrile, Royal Hart, Wistar strain rats ranging in weight from 80 to 90 grams were used. The rats were fasted overnight prior to dosing but had free access to water. The compound was administered in aqueous suspension, by gavage, in a volume of 1.7 ml. per 50 grams of rat [corresponds by hydration volume used by Winter et al., Proc. Soc. […] The phlogistic agent used was carrageenin prepared as a sterile 1% suspension in 0.9% aqueous sodium chloride for routine testing. A volume of 0.05 ml. was injected through a 26 gauge needle into the planter tissue of the right hind paw. Measurements were made 5 hours after drug administration (4 hours after carrageenin challenge). Volumes of both the normal and carrageenin inflamed feet were determined. The difference between the two measurements is considered to be the increased edema due to the carrageenin administration.

[2] = tested on: Body Temperature of Pyretic Rats; experiment: Body temperature in yeast induced pyrexia; type: in vivo, Royal Hart, Wistar strain rats; conditions: 250 mg./kg. by gavage 17 hours after yeast; measured 19 hours post challenge
Protocol: The effect of benzimidoylacetonitrile on body temperature in yeast induced pyrexia was determined by the following procedure. Groups of three Royal Hart, Wistar strain rats weighing 80±5 grams were injected subcutaneously in the nape of the neck with 0.6 ml. of a 40% suspension of dried brewers yeast in distilled water. […] At 19 hours post challenge the rectal temperature of each rat was measured with an electric thermometer. Each dose response experiment was replicated one or more times.

[3] = tested on: Adjuvant Arthritis in Rats; experiment: Adjuvant induced arthritis in rats (chronic inflammation with joint destruction); type: in vivo, Royal Hart, Wistar strain rats; conditions: once daily days 0-13
Excerpt: Adjuvant induced experimental polyarthritis is a specific systemic disease of the rat which shares interesting similarities with rheumatoid arthritis. Specifically, the histology of the two diseases bears a remarkable resemblance as shown by C. M. Pearson et al., Am. J. Pathol. 42, 73 (1963). E. M. Glenn, Am. J. Vet. Res. 27 (116), 339 (1966) has classified adjuvant induced polyarthritis as a crippling and permanent deformity resulting from diffuse connective tissue involvement around certain susceptible joints in the rat. Zahiri et al., Can. Med. Ass. J. 101, 269 (1969) have shown that the fusiform swelling of the distal joints is associated with edema, congestion and synovitis including pannus formation, all of which precede the ultimate destruction of bone and cartilage. Furthermore, Zahiri et al. indicate that the cartilage destruction in the joint is due to an invasive pannus which originates in the marginal synovium and extends across the articular surface to erode it. […] See S. Wong et al., J. Pharm. & Exptl. Ther. 185, 127 (1973) and G. R. Bobalick et al., Agents & Actions 4, 364 (1974). In a similar manner, inhibition of the progress of arthritis in paws of rats treated with the compounds of this invention also lessens associated joint deterioration.
Groups of three Royal Hart, Wistar strain rats weighing 200±10 grams each were injected intradermally in the right hind paw with Freund's adjuvant (dried human tubercle bacilli in a mineral oil vehicle) at a dose of 2 mg./kg. of body weight. Test compounds were administered orally in a 1.5% staruh vehicle at various doses once daily on days 0 through 13 post challenge. Control rats were treated in a similar manner, but given only starch vehicle. On the 14th and 21st day post challenge the diameter of the injected paw (primary lesion) was measured by micrometer caliper. The volume of inflamed paws were estimated from these measurements and the results are expressed as percent inhibition of swelling as compared to controls. At the same time, the other inflamed sites, such as ears, paws and tail (secondary lesions) were observed and each rat was graded as to degree of inflammation and swelling present. The grading is based on a scale of 0 to 24, where 0 represents a complete absence of induced arthritic nodules and 24 represents the maximum degree of inflammation. The mean grade for each treated group is calculated and the effects of each compound are expressed as percent inhibition of the control grade. Table III records the results of these tests conducted with benzimidoylacetonitrile, m-fluorobenzimidoylacetonitrile and p-fluorobenzimidoylacetonitrile and known anti-inflammatory agents. The active compounds of the present invention suppress the progression of the arthritis and associated joint deterioration. Of particular interest is the low mortality observed with benzimidoylacetonitrile treated rats relative to either controls or rats treated with standard compounds.

[4] = tested on: Erythema in Guinea Pigs; experiment: Ultraviolet induced erythema in guinea pigs, topical application; type: in vivo, Albino guinea pigs
Protocol: Albino guinea pigs were depilitated on their flanks, the evening before testing, with a standard mixture of barium sulfide and gum acacia. On the morning of the test at 0 hour they were restrained in a plastic container which allows exposure of 3 circular spots. They were then exposed to ultraviolet irradiation from a "Hanovia" Kromayer lamp, model 10, for 60 seconds. Immediately after exposure to ultraviolet light, the guinea pigs were treated by dissolving the test compound in ethyl alcohol at various concentrations and swabbing the UV exposed areas with the aid of a cottom tipped applicator stick. At one and four hours, the degree of erythema for each of the three sites was assessed according to the following scoring system: 0=no erythema, 0.5=incomplete circle or faint erythema and 1.0=complete circle of distinct erythema. Thus, the maximum score for each animal was 3.0.

[5] = tested on: arthritic paw swelling; conditions: Wong et al. 1973; Bobalick et al. 1974; cited from earlier work

COc1ccc2c(c1)c(CC(=O)O)c(C)n2C(=O)c1ccc(Cl)cc1 [Indomethacin]
C/T Edema Ratio (edema of control animals/edema of treated animals) [1]: 2.9 | Decrease In Body Temp. [2]: 2.5 °C | % Inhibition of Control Grade (secondary lesion), Day 14 ([3]; 0.25 mg./kg. oral): 22% | % Inhibition of Control Grade (secondary lesion), Day 21 ([3]; 0.25 mg./kg. oral): 4% | % Inhibition of Swelling (primary lesion), Day 14 ([3]; 0.25 mg./kg. oral): 30% | % Inhibition of Swelling (primary lesion), Day 21 ([3]; 0.25 mg./kg. oral): 4% | Dead/Treated At 21 Days ([3]; 0.25 mg./kg. oral): 0/9 | Mean Weight Gain, Day 14 ([3]; 0.25 mg./kg. oral): 51 grams | Mean Weight Gain, Day 21 ([3]; 0.25 mg./kg. oral): 57 grams | % Inhibition of Control Grade (secondary lesion), Day 14 ([3]; 0.5 mg./kg. oral): 25% | % Inhibition of Control Grade (secondary lesion), Day 21 ([3]; 0.5 mg./kg. oral): 17% | % Inhibition of Swelling (primary lesion), Day 14 ([3]; 0.5 mg./kg. oral): 40% | % Inhibition of Swelling (primary lesion), Day 21 ([3]; 0.5 mg./kg. oral): 20% | Dead/Treated At 21 Days ([3]; 0.5 mg./kg. oral): 5/54 | Mean Weight Gain, Day 14 ([3]; 0.5 mg./kg. oral): 53 grams | Mean Weight Gain, Day 21 ([3]; 0.5 mg./kg. oral): 51 grams | % Inhibition of Control Grade (secondary lesion), Day 14 ([3]; 1 mg./kg. oral): 34% | % Inhibition of Control Grade (secondary lesion), Day 21 ([3]; 1 mg./kg. oral): 20% | % Inhibition of Swelling (primary lesion), Day 14 ([3]; 1 mg./kg. oral): 46% | % Inhibition of Swelling (primary lesion), Day 21 ([3]; 1 mg./kg. oral): 19% | Dead/Treated At 21 Days ([3]; 1 mg./kg. oral): 9/54 | Mean Weight Gain, Day 14 ([3]; 1 mg./kg. oral): 63 grams | Mean Weight Gain, Day 21 ([3]; 1 mg./kg. oral): 65 grams | % Inhibition of Control Grade (secondary lesion), Day 14 ([3]; 2 mg./kg. oral): 38% | % Inhibition of Control Grade (secondary lesion), Day 21 ([3]; 2 mg./kg. oral): 25% | % Inhibition of Swelling (primary lesion), Day 14 ([3]; 2 mg./kg. oral): 51% | % Inhibition of Swelling (primary lesion), Day 21 ([3]; 2 mg./kg. oral): 24% | Dead/Treated At 21 Days ([3]; 2 mg./kg. oral): 8/57 | Mean Weight Gain, Day 14 ([3]; 2 mg./kg. oral): 68 grams | Mean Weight Gain, Day 21 ([3]; 2 mg./kg. oral): 68 grams | Erythema Score (Avg.) 1 Hr. ([4]; 0.25% in ethyl alcohol, maximum score 3.0, control 2.5): 1.8 | Erythema Score (Avg.) 4 Hr. ([4]; 0.25% in ethyl alcohol, maximum score 3.0, control 3.0): 2.5 | Erythema Score (Avg.) 1 Hr. ([4]; 0.5% in ethyl alcohol, maximum score 3.0, control 2.5): 1.5 | Erythema Score (Avg.) 4 Hr. ([4]; 0.5% in ethyl alcohol, maximum score 3.0, control 3.0): 2.4 | Erythema Score (Avg.) 1 Hr. ([4]; 1% in ethyl alcohol, maximum score 3.0, ethyl alcohol control 2.5): 0.7 | Erythema Score (Avg.) 4 Hr. ([4]; 1% in ethyl alcohol, maximum score 3.0, ethyl alcohol control 3.0): 2.5 | arthritic paw swelling (in words) [5]: inhibit arthritic paw swelling | joint and bone deterioration (in words) [5]: prevent joint and bone deterioration
